Values quoted from earlier work in patent US12310973B2, “Administration and dosage of diaminophenothiazines” (WisTa Laboratories Ltd., priority 2016, dated 2025).

Key:
[1] = test system: TDP-43 aggregates in SH-SY5Y cells; conditions: 0.05 μM MT; cited from earlier work
[2] = test system: huntingtin derivative containing a polyglutamine stretch of 102 residues; conditions: tested at 0, 10 and 100 μM; zebrafish; cited from earlier work

methylthioninium [MT]
Reduction in number of TDP-43 aggregates [1]: 50% | Formation of aggregates of huntingtin derivative (polyglutamine stretch of 102 residues) [2]: prevented the formation of such aggregates in zebrafish in a dose dependent manner
